The values below come from ChEMBL document CHEMBL5244275, “Geminal Diheteroatomic Motifs: Some Applications of Acetals, Ketals, and Their Sulfur and Nitrogen Homologues in Medicinal Chemistry and Drug Design” (J Med Chem, 2021).

A short description of data set [1]: Half-life in rat at 10 mg/kg, po. Format: ADME, organism-based. The following applies: in vivo.
The nature of data set [2]: Oral bioavailability in rat. Format: ADME, organism-based. To be noted: in vivo.
Data set [3] is described as follows: Oral bioavailability in mouse. In kind it is ADME, organism-based. The following applies: in vivo.
Data set [4] in a line: Stability in dog plasma assessed as drug degradation measured after 44 hrs. Format: ADME, cell-free, Canis lupus familiaris. The following applies: read-out: Drug degradation.
Data set [5] is described as follows: Stability in monkey plasma assessed as drug degradation measured after 44 hrs. The following applies: rhesus monkey, read-out: Drug degradation. In kind it is ADME, cell-free, Macaca mulatta.
Data set [6] is described as follows: Stability in rat plasma assessed as drug degradation measured after 44 hrs. In kind it is ADME, cell-free. To be noted: read-out: Drug degradation.
Data set [7] is described as follows: Stability in human plasma assessed as drug degradation measured after 44 hrs. In kind it is ADME, cell-free. To be noted: read-out: Drug degradation.
Data set [8] can be described thus: Ratio of drug concentration in brain to plasma in mouse at 30 mg/kg, po measured after 6 hrs. Format: ADME, organism-based. The following applies: read-out: BPR.
The target of data set [9] is Amyloid-beta precursor protein (Homo sapiens, UniProt P05067). As to the kind of experiment: Inhibition of amyloid beta (1 to […] ) (unknown origin).
Data set [10] has as its target PXR (NR1I2) (Homo sapiens, UniProt O75469). The experiment in a line: Activation of PXR (unknown origin) in human DPX2 cells assessed as maximal efficacy at 15 uM relative to control. Format: cell-based.
Data set [11] can be described thus: Solubility of the compound at pH 7 incubated for 12 hrs by UPLC analysis. In kind it is physicochemical. The following applies: buffer, pH 7, 12 h.
Data set [12] can be described thus: Bioavailability in rat at 0.5 mg/kg, iv measured after 30 mins by LC-MS/MS analysis. In kind it is ADME, organism-based. To be noted: in vivo.
The nature of data set [13]: Bioavailability in dog at 1 mg/kg, iv measured after 30 mins by LC-MS/MS analysis. Format: ADME, organism-based, Canis lupus familiaris. The following applies: in vivo.
Data set [14] deals with Human immunodeficiency virus 1. The experiment in a line: Selectivity index, ratio of EC50 for antiviral activity against HIV-1 G140S/Q148R mutant to EC50 for antiviral activity against wild-type HIV-1. Format: functional.
Data set [15] can be described thus: Unbound fraction in human plasma. Format: ADME, cell-free.
Data set [16] deals with Human immunodeficiency virus 1. As to the kind of experiment: Antiviral activity against HIV1 infected in human MT4 cells assessed as inhibition of viral replication. Format: functional, organism-based. To be noted: Human immunodeficiency virus 1, MT4.
Data set [17] is described as follows: Half-life in human. Format: ADME.
The nature of data set [18]: Stability of the compound assessed as compound hydrolysis by measuring rate constant. Format: physicochemical.
The nature of data set [19]: Stability of the compound at pH 7.4 aqueous phosphate buffer assessed as half-life. In kind it is physicochemical.
A short description of data set [20]: Inhibition of Acinetobacter baumannii beta-lactamase OXA-235.
Data set [21] in a line: Inhibition of Acinetobacter baumannii beta-lactamase OXA-24.
Data set [22] can be described thus: Inhibition of Acinetobacter baumannii beta-lactamase OXA-143.
In data set [23] the target is Polymerase acidic protein (Influenza A virus (A/Puerto Rico/8/1934(H1N1)), UniProt P03433). The experiment in a line: Inhibition of Influenza A virus CEN.
The subject of data set [24] is Mus musculus. As to the kind of experiment: Anticonvulsant activity in MES induced mouse model of seizure at 75 mg/kg, po measured after 4 hrs relative to control. Format: functional.
In data set [25] the target is Somatostatin receptor type 2 (Homo sapiens, UniProt P30874). As to the kind of experiment: Inhibition of human SSTR2.
Data set [26] in a line: Oral bioavailability in dog. Format: ADME, organism-based, Canis lupus familiaris. The following applies: in vivo.
Data set [27] in a line: Drug recovery in mouse urine. In kind it is ADME. The following applies: pooled result: one value given for 8 cell lines, strains, targets or settings, read-out: Drug recovery.
Data set [28] is described as follows: Antiplatelet activity in human platelet rich plasma assessed as platelet aggregation. Format: functional, cell-free.
Data set [29] can be described thus: Solubility of the compound at pH 7.4. Format: physicochemical. The following applies: buffer.
The subject of data set [30] is Human immunodeficiency virus 1. The experiment in a line: microbe, parasite or virus in culture. To be noted: Human immunodeficiency virus 1, LAV.
Data set [31] relates to Human immunodeficiency virus 1. As to the kind of experiment: Antiviral activity against HIV-1 RF. To be noted: Human immunodeficiency virus 1, RF. Format: functional, organism-based.
Data set [32] in a line: Aqueous solubility of the compound at pH 1.3 to 8. The following applies: buffer. Format: physicochemical.
Data set [33] in a line: Stability of the compound at pH 1.3 assessed as degradation half life. Format: physicochemical. The following applies: buffer.
A short description of data set [34]: Stability of the compound at pH 7.30 assessed as degradation half life. In kind it is physicochemical. The following applies: buffer, pH 7.3.
In data set [35] the test system is Plasmodium falciparum. As to the kind of experiment: Antiplasmodial activity against Plasmodium falciparum FCB1 assessed as inhibition of parasite growth. In kind it is functional, organism-based.
The nature of data set [36]: Antiplasmodial activity against Plasmodium berghei NK 173 infected in ICR (CD-1) mouse assessed as inhibition of parasite growth administered intraperitoneally for four days. To be noted: NK 173, 96 h.
Data set [37] can be described thus: Stability of the compound at pH 2 assessed as half-life. To be noted: buffer. Format: physicochemical.
The target in data set [38] is Sodium/glucose cotransporter 2 (Homo sapiens, UniProt P31639). The experiment in a line: Inhibition of human SGLT2.
Data set [39] can be described thus: Drug degradation in citrate buffer at pH 4 measured after 18 hrs. Format: physicochemical. To be noted: read-out: Drug degradation.
Data set [40] can be described thus: Dissociation constant, pKa of the compound. In kind it is physicochemical.
A short description of data set [41]: Drug degradation in citrate buffer at pH 8.5 measured after 18 hrs. Format: physicochemical. To be noted: read-out: Drug degradation.

Structures are written as SMILES. ≈ marks a conversion by molar mass, not a printed value. Numbered stars: 1 amine (or outer) side, 2 acyl side, 3 side chain; on linkers, the order of the positions; unused ones are H or OH. Bridge positions count the residues as written; N and C are the ends. Square brackets hold non-standard residues; d marks the D form. Peptide text beside a SMILES is read from it. * marks the point of attachment. Orn(4R-OH,5R-OCH2CH2NMe3+) = C[N+](C)(C)CCO[C@@H](N[*:3])[C@H](O)C[C@H](N[*:1])C(=O)[*:2]; pTerphenylCO(4''-OnC5H11) = CCCCCOc1ccc(-c2ccc(-c3ccc(C(=O)*)cc3)cc2)cc1; hTyr(3S-OH,4S-OH) = N[C@H](C(=O)O)[C@H](O)[C@@H](O)c1ccc(O)cc1; Pro(3S-OH,4S-Me) = C[C@H]1CN[C@H](C(=O)O)[C@H]1O; Hyp = O=C(O)[C@@H]1C[C@@H](O)CN1

Sequence of Sodium/glucose cotransporter 2 (P31639 whole entry): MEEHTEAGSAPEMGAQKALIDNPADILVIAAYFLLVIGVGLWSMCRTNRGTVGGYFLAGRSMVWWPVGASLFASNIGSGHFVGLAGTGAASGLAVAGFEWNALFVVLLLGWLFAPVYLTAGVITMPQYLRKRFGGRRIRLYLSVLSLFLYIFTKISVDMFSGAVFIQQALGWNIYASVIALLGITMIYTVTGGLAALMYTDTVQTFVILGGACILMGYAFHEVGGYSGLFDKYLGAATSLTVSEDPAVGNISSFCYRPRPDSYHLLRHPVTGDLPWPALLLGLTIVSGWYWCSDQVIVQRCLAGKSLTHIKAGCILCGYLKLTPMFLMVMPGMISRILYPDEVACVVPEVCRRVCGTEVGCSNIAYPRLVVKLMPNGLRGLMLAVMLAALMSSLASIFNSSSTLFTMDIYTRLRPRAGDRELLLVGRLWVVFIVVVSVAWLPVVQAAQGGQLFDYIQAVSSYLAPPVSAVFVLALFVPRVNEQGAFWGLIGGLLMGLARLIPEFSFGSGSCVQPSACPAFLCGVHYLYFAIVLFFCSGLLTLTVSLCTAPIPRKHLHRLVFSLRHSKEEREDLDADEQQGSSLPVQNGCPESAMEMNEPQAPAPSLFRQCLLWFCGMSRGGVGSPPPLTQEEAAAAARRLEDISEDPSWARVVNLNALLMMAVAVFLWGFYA
Sequence of Amyloid-beta precursor protein (P05067 whole entry): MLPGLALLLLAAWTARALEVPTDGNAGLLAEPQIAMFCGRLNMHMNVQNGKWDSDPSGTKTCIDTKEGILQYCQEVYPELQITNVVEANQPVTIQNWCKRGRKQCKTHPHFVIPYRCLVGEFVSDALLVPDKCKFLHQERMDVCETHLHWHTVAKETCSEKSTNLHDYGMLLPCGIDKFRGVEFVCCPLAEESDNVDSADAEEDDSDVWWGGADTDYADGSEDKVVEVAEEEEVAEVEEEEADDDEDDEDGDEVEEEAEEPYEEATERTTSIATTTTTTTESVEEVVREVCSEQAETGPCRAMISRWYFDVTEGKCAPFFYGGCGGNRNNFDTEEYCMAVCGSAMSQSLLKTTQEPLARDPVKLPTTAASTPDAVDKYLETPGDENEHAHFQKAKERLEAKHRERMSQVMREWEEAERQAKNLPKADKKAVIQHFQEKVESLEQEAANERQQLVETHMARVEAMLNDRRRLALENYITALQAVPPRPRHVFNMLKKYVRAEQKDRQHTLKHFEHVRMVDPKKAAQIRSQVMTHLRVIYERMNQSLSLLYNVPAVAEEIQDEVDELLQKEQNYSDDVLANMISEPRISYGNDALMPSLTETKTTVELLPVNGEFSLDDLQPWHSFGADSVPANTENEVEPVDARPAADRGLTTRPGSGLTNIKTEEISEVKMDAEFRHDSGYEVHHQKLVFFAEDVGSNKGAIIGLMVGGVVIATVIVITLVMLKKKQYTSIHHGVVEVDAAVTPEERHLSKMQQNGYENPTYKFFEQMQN
Sequence of Somatostatin receptor type 2 (P30874 whole entry): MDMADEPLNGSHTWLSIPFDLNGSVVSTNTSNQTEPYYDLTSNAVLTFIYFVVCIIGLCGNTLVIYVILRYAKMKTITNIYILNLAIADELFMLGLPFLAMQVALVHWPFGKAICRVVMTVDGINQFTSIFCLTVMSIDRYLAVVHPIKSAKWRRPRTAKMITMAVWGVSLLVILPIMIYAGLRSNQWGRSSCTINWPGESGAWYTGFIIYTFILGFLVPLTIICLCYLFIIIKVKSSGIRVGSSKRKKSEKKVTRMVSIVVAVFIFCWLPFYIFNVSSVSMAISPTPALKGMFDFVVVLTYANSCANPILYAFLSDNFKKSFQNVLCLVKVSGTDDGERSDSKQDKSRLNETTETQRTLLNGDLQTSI
Sequence of PXR (NR1I2) (O75469 whole entry): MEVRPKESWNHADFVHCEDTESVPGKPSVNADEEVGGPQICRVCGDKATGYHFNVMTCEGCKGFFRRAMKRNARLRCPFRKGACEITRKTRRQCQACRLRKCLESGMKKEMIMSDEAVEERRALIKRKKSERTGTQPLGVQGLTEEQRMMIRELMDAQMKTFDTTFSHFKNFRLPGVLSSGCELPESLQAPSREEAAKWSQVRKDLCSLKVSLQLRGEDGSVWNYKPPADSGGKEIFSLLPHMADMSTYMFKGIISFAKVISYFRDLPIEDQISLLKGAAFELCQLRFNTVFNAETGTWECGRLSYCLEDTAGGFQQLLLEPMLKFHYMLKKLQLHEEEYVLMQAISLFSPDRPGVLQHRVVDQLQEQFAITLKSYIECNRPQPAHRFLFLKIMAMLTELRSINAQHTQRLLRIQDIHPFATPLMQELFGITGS

`CN1CCN(C2CCN(C(=O)CC3CCC4(CC3)OOC3(OO4)C4CC5CC(C4)CC3C5)CC2)CC1` (centres undefined) gave a half-life in data set [1] of 2.4 h. Further, the bioavailability was 38% in data set [2] and 42% in [3].

For the compound `CCCCCOc1ccc(-c2ccc(-c3ccc(C(=O)N[C@H]4C[C@@H](O)[C@@H](OCC[N+](C)(C)C)NC(=O)[C@@H]5[C@@H](O)[C@@H](C)CN5C(=O)[C@H]([C@@H](C)O)NC(=O)[C@H]([C@H](O)[C@@H](O)c5ccc(O)cc5)NC(=O)[C@@H]5C[C@@H](O)CN5C(=O)[C@H]([C@@H](C)O)NC4=O)cc3)cc2)cc1` [REZAFUNGIN] ({pTerphenylCO(4''-OnC5H11)}-[Orn(4R-OH,5R-OCH2CH2NMe3+)]T[Hyp][hTyr(3S-OH,4S-OH)]T[Pro(3S-OH,4S-Me)]; lactam 1-C), the metabolised at 44 h in data set [4] was 21%; in [5], 6%; in data set [6], 9%; in [7] it was 7%.

With `CCC(=O)O[C@@H]([C@H]1C[C@@H](C)[C@H]2[C@H](O1)[C@H](O)[C@@]1(C)[C@@H]3CC[C@H]4C(C)(C)[C@@H](O[C@H]5CN(C6CN(C)C6)CCO5)CC[C@@]45C[C@@]35CC[C@]21C)C(C)(C)O`, the Kp at 6 h in [8] stood at 0.55. Also, in data set [9], inhibition was half-maximal at 100 nM (IC50). The same compound registered a bioavailability in data set [3] of 45%.

Turning to `C[C@@H]1CCO[C@H]2Cn3cc(C(=O)NCc4ccc(F)cc4F)c(=O)c(O)c3C(=O)N12` [DOLUTEGRAVIR], the Emax at 15 µM in data set [10] was 51%. For the same compound, the solubility in data set [11] was found to be 53 µg/mL (≈ 126 µM). Besides, the bioavailability is 52% in [12] and 17% in [13]. The “Ratio EC50” value in [14] came to 4.8. This compound also had a Fu in [15] of 0.7%. Also, in data set [16], the EC50 was 1.7 nM. The compound also showed a half-life in [17] of 14 h.

`FC1(F)[C@H]2O[C@@H]1[C@H](COCc1ccccc1)[C@@H](COCc1ccccc1)O2`: in [18], the K is on record as 2.4 10^-3/M/s. In addition, the half-life in [19] was over 720 h.

Consider `C[C@]1(COC(=O)Cc2ccc(O)c(O)c2)[C@H](C(=O)O)N2C(=O)/C(=C/c3ccccn3)[C@H]2S1(=O)=O`, for which the IC50 is 8 nM in [20], 15 nM in [21] and 3 nM in data set [22].

Consider `O=C1c2c(O)c(=O)ccn2N([C@@H]2c3ccccc3SCc3c2ccc(F)c3F)[C@@H]2COCCN12` [BALOXAVIR], for which 2.5 nM corresponded to half-maximal inhibition in data set [23] (IC50). The half-life in [17] was 79 h.

`CC1(C)O[C@H]2[C@H](O)[C@H](O)CO[C@@]2(COS(N)(=O)=O)O1` came in with an Activity in data set [24] of 40%.

Regarding `C[C@@H](c1c[nH]c2ccccc12)[C@H](C(=O)N[C@@H](CCCCN)C(=O)OC(C)(C)C)N1CCN(CCCc2ccccc2)C1=O`, in [25], the Ki turned out to be 3.6 nM. Besides, in data set [26], the bioavailability turned out to be 5%.

In the case of `CC1(C)O[C@@H]2[C@@H](CC[C@@]3(COS(N)(=O)=O)OC(C)(C)O[C@@H]23)O1`, the dose excreted in data set [27] is 89%.

As for `CCCCC[C@H](O)/C=C/[C@H]1O[C@H]2C[C@H](O2)[C@@H]1C/C=C\CCCC(=O)O`, in data set [18], the K is given as 5.5 10^5/M/s. In addition, the EC50 in data set [28] is 162 nM.

In turn, `Nc1nc(O)c2ncn(COC(CO)CO)c2n1` [GANCICLOVIR] came in with a solubility in data set [29] of 2000 µg/mL (≈ 7840 µM).

The compound `Nc1ccn([C@H]2CS[C@@H](CO)O2)c(=O)n1` displayed a half-maximal effective concentration (EC50) in data set [30] of 200 nM. Further, the IC50 in data set [31] worked out at 1220 nM.

`COc1cc([C@@H]2c3cc4c(cc3[C@@H](O[C@@H]3O[C@@H]5CO[C@@H](C)O[C@H]5[C@H](O)[C@H]3O)[C@H]3COC(=O)[C@H]23)OCO4)cc(OC)c1O` [ETOPOSIDE] showed a solubility in data set [32] of 116 µg/mL (≈ 197 µM). Besides, the half-life in data set [33] is 2.88 h; in data set [34], 27.7 h.

As to `CO[C@H]1O[C@@H]2O[C@@]3(C)CC[C@H]4[C@H](C)CC[C@@H]([C@H]1C)[C@@]24OO3`, the IC50 in data set [35] stood at 3.5 nM. The ED50 in [36] is 8.4 µmol/kg. Moreover, the half-life in data set [37] was 11 h.

`CCOc1ccc(Cc2cc([C@]34CO[C@](CO)(O3)[C@@H](O)[C@H](O)[C@H]4O)ccc2Cl)cc1` had an IC50 in data set [38] of 714 nM.

Regarding `COc1ccc(C2=CN(CNC(C)=O)CC2=O)cc1`, the degraded at 18 h in [39] is under 1%; in data set [41], 40%. This compound returned a pKa in [40] of under 6.

What is called half-life is how long it takes for the measured level to halve. In general, bioavailability refers to the share of a dose that reaches the circulation, judged against a reference dose that is usually intravenous. The term IC50 denotes the concentration that inhibits the measured activity by half. For orientation: Emax means the greatest response seen or fitted, relative to the assay's reference. What is called solubility is the concentration that dissolves in the medium under given conditions. One may read the EC50 as the concentration giving half of the maximal effect. As usually defined, the Ki is a dissociation constant, usually derived from enzyme kinetics or from competition with a known ligand. One may read the ED50 as the midpoint of the dose-response relation. As usually defined, the pKa is the negative logarithm of the acid dissociation constant.
